Results as given in patent US11241434B2, “Compositions and methods for improving cognition in a subject” (Yale University, priority 2013, dated 2022).

Assays:
[1] = Phase Ib study, CSF and plasma saracatinib levels (LC/MS/MS); format: in vivo, human; conditions: for estimated human brain concentration: using ratio of CSF:Brain in mouse; for trough CSF / free concentration of saracatinib in plasma / increase in CSF level: human; for free concentration of saracatinib in plasma: from trough CSF levels and FIG. 8 correlation
Procedure: Each point is from a different individual. The different dose groups are illustrated with different colors.
Each point represents trough CSF saracatinib level from a different human subject for the left three columns. The mouse trough CSF values are derived from brain levels at the 5 mg/kg/d dose that rescued memory deficits in FIGS. 3-5. Bars represent mean+sem.
Plasma samples are analyzed using solid-phase extraction followed by HPLCMS/MS. […] Calibration, quality control (QC) or blank plasma samples (200 μL) are pipetted into a standard 96-well plate. The appropriate internal standard (20 μL) is added to all samples (except the double blank to which 20 μL of methanol is added). 2% ammonium solution (1000 μL) is added to all wells and mixed. Solid-phase extraction is performed using Oasis HLB 30 mg 1 mL 96-well plates. The samples are conditioned with 1 mL methanol then 1 mL 2% ammonium solution. A 1 mL sample is loaded, washed with 1 mL 25:75, v:v methanol:water and eluted with 0.8 mL methanol. The samples are dried under oxygen-free nitrogen at 35° C. The dry residues are reconstituted in 200 μL of mobile phase, vortex mixed and transferred to 96-well plates. The vials are loaded onto HPLC-MS/MS and injected onto the reversed phase HPLC system. Calibration samples are prepared and analyzed in duplicate at LLOQ (lower limit of quantification) and ULOQ (upper limit of quantitation) and singly at all other levels. Independently prepared QC samples covering the calibration range are analyzed in duplicate and in triplicate at the dilution QC level. Plasma concentration data are quantified using an HPLC-MS/MS method and analyzed by standard methods using WinNonLin version 4.1 (Pharsight Corporation, Mountain View, Calif.).
Subjects were enrolled in three cohorts of 8 subjects each.
In certain embodiments, obtaining the scans worked as a pilot to the collection of brain metabolism data for the Phase 2a trial. In addition, saracatinib levels were measured in this study using a GLP-validated LC/MS/MS assay. […] CSF levels are about a third of plasma free drug levels.

[2] = tested on: mice with closed head injury (CHI) and chronic variable stress (CVS); assay: Behavioral tests after closed head injury plus chronic variable stress; format: in vivo, mouse
Procedure: FIGS. 15A-15H illustrate the finding that Fyn inhibition rescues memory deficits after repeated mild head injury combined with chronic stress. FIG. 15A: Timeline for mice undergoing 14 days of chronic variable stress (CVS) and closed head injury (CHI) or Sham CVS & CHI paradigm. On Day 15, Rotarod testing was done to assess motor impairment in a subset of mice. The mice were treated with either AZD0530 (5 mg/kg/d) or Vehicle treatment for 10 weeks starting 24 hours after the final day of injury. This was followed by one week of behavioral testing, including novel object recognition test and Morris water maze prior to perfusion and immunohistochemistry. FIG. 15B: Rotarod prior to the treatment using the Sham and Injured groups. One-way ANOVA, p>0.05. Data are mean±SEM. n=8-9/group, each dot is one mouse. FIG. 15C: Novel object recognition test using the Sham mice and Injured mice with and without AZD0530 treatment. Two-way ANOVA, F(2,64)=5.258 p=0.007 for interaction of group with object, Sidak's multiple comparison test: Novel vs Familiar for Sham Vehicle (SV): p<0.0001, for Injured Vehicle (IV): p=0.99, for Injured AZD (IA): p=0.0002. Data are mean±SEM. n=9-13/group, each dot represents one mouse. FIG. 15D: Latency to reach a hidden platform in Morris water maze across 6 blocks of 4 swims for Sham mice and Injured mice with and without AZD0530 treatment. Data are mean±SEM. n=14-17/group. Two-way ANOVA for time and group with main effect of group, p<0.0001, F (2, 41)=47.24. Tukey's multiple comparison test: SV vs IV: p<0.0001, IV vs IA: p=0.98, SV vs IA: p<0.0001. FIG. 15E: Morris water maze probe trial for Sham or Injured mice treated with Vehicle or AZD0530, showing time in the Target quadrant. One way ANOVA: F(2,39)=9.410, p=0.0005, Tukey's multiple comparison test: SV vs IV: p=0.0003, IV vs IA: p=0.12, SV vs IA: p=0.05. Data are mean±SEM. n=13-15/group, each dot is one mouse. Dashed line indicates random chance performance. FIG. 15F: A second group of mice underwent a similar 14 days of chronic variable stress (CVS) plus closed head injury (CHI) or Sham CVS & CHI paradigm, and then starting on Day 121 were treated with either AZD0530 (5 mg/kg/d) or Vehicle for 10 weeks. The mice subsequently underwent Morris water maze testing. […] Data are mean±SEM. n=8-26/group. […] Data are mean±SEM. n=8-26/group, each dot is one mouse.
The injury model was based on the combination of Closed Head Injury (CHI) and Chronic Variable Stress (CVS). The Sham mice received Sham-CHI and Sham-CVS treatments.
Closed Head Injury (CHI) is a well-established mice injury model (Sangobowale et al, 2018, Neurotrauma 35:907-917). Mice were weighed prior to receiving Sham-CHI or CHI. […] Mice were placed on a heating pad to maintain body temperature while receiving the impact, as well as during the post-injury recovery period. The mice underwent a total of 14 consecutive days of CHI injury, once per day. The site of injury alternated between right and left hemispheres on consecutive days. Each CHI injury was performed 1-3 hours after that day's CVS exposure. Injury severity was assessed using time interval between injury and recovery of the righting reflex (Grin'kina et al., 2013, PLoS One 8, e53775). The mice were placed on a heat pad both while receiving the impact, as well as the period following the impact to preserve their core body temperature. Mice were returned to vivarium after restoration of their righting reflex and this was typically less than 5 minutes. […]

[3] = Injured mice, 5 mg/kg/day from Day 15, 10 weeks

CN1CCN(CCOc2cc(OC3CCOCC3)c3c(Nc4c(Cl)ccc5c4OCO5)ncnc3c2)CC1 [saracatinib, N-(5-chloro-benzo[d][1,3]dioxol-4-yl)-7-(2-(4-methylpiperazin-1-yl)ethoxy)-5-(tetrahydro-2H-pyran-4-yloxy)quinazolin-4-amine]
estimated human brain concentration ([1]; 50 mg saracatinib free base): 3 to 7 nM
estimated human brain concentration ([1]; 100 mg saracatinib free base): 7 to 27 nM
estimated human brain concentration ([1]; 125 mg saracatinib free base): 8 to 46 nM
trough CSF ([1]; 50 mg saracatinib free base daily): 0.9 to 2.2 nM
free concentration of saracatinib in plasma ([1]; 50 mg): 2.6 to 6.5 nM
trough CSF ([1]; 100 mg saracatinib free base daily): 2.1 to 8.3 nM
free concentration of saracatinib in plasma ([1]; 100 mg): 6.2 to 24.4 nM
trough CSF ([1]; 125 mg saracatinib free base daily): 2.5 to 14.0 nM
free concentration of saracatinib in plasma ([1]; 125 mg): 7.4 to 41.2 nM
increase in CSF level ([1]; from 50 to 100 mg): three-fold
increase in CSF level ([1]; from 100 to 125 mg): two-fold
Morris water maze learning trials [2, 3]: severely impaired learning relative to Sham Vehicle
Morris water maze probe trial memory for platform location [2, 3]: not statistically distinguishable from Sham Vehicle
novel object recognition ([2]; Injured mice, 5 mg/kg/day oral gavage from Day 15 (24 hours after final injury), 10 weeks): recognized familiar objects as successfully as Sham Vehicle mice
Morris water maze probe trial memory ([2]; Injured mice, treatment from Day 121 (107 days after final injury), 10 weeks): no evidence of improved memory
Morris water maze latency in learning trials, Injured AZD vs Injured Vehicle ([2]; treatment from Day 121, 10 weeks): not significantly different from one another
